According to US5045566A, “Novel imidate insecticides” (ICI Americas Inc., priority 1989, dated 1991):

Experiments:
Type in all cases: in vivo
[1] = tested on: Housefly [Musca domestica]; test: Housefly contact mortality in dishes (HF), 48 hours; conditions: μg of test compound per 25 female flies
Procedure: (§1) The compounds in Tables 1 and 2 above were tested for insecticidal activity using the following testing procedures. LC50 values, based on the results of these tests and calculated according to dosage-mortality curves, are expressed in Table 3.
Housefly [Musca domestica]:
Test compounds were diluted in acetone and aliquots pipetted onto the bottom of aluminum dishes. To ensure even spreading of the chemical on the bottom of the dishes, 1 ml of acetone containing 0.01% peanut oil was also added to each dish. After all solvents had evaporated, the dishes were placed in circular cardboard cages containing 25 female houseflies, 1-2 days old. The cages were covered on the bottom with cellophane and on the top with tulle netting, and each contained a sugar-water saturated cotton plug for maintenance of the flies. Mortality was recorded after 48 hours. Test levels ranged from 100 μg/25 female houseflies downward. The LC-50 value is expressed below in Table 3 under the heading "HF", in terms of μg of the test compound per 25 female flies.

[2] = tested on: Cabbage Looper [Trichoplusia ni (Hubner)]; test: Cabbage looper leaf dip (CL), 3-5 days; conditions: percent in solution, second-instar larvae
Procedure: as §1
Cabbage Looper [Trichoplusia ni (Hubner)]:
Test compounds were diluted in a 50-50 acetone-water solution. Cotyledons of hyzini squash (Calabacita abobrinha), approximately 1×1.5 inches, were immersed in the test solutions for 2-3 seconds and placed on a wire screen to dry. The dried leaves were placed in petri dishes containing a moistened piece of filter paper and infested with 5 second-instar cabbage looper larvae. The dishes were placed in a high humidity chamber. Mortality of the larvae was recorded 3-5 days later. Test concentrations ranged from 0.1% downward. The LC-50 value is expressed below in Table 3 under the heading "CL" in terms of percent of the test compound in solution.

[3] = tested on: Black Bean Aphid [Aphis fabae (Scop.)]; test: Black bean aphid spray test on nasturtium (BBA), 48 hours; conditions: percent of test compound in sprayed solution
Procedure: as §1
Black Bean Aphid [Aphis fabae (Scop.)]:
Nasturtium plants (Tropaeolum sp.) approximately 5 cm tall, were transplanted into sandy loam soil in small cups and infested with 25-50 black bean aphids of mixed ages. Twenty-four hours later they were sprayed to the point of runoff with 50-50 acetone-water solutions of the test compounds. Treated plants were held in the greenhouse and mortality was recorded after 48 hours. Test concentrations ranged from 0.05% downward. The LC-50 value is expressed below in Table 3 under the heading "BBA" in terms of percent of the test compound in the sprayed solution.

[4] = tested on: Tobacco Budworm [Heliothis virescens (Fabricius)] eggs; test: Tobacco budworm eggs (TBW-E); conditions: percent in solution; 2-day old eggs
Procedure: as §1
Tobacco Budworm [Heliothis virescens (Fabricius)]:
(b). Eggs: Paper towel patches of 2-day old eggs of the tobacco budworm were dipped in acetone solutions of the test compound and placed in petri dishes containing a portion of larval rearing medium. Treated eggs were maintained at 78° F. and mortality was recorded after all control eggs had hatched and the young larvae were feeding on the media. Test concentrations ranged from 0.1% downward. The LC-50 value is expressed below in Table 3 under the heading "TBW-E" in terms of percent of the test compound in the solution.

Compound | LC50 HF [1] [µg] | LC50 CL [2] [%] | LC50 BBA [3] [%] | LC50 TBW E (eggs) [4] [%]
FC(F)(F)c1cccc(N=C(OCc2cccc(Oc3ccccc3)c2)C2CC2)c1 [Compound 86] | 65 | 0.013 | < 0.05 | –
CC(C)C(=Nc1ccc(F)c(F)c1)OCc1cccc(Oc2ccc(C#N)cc2)c1 [Compound 212] | 20 | 0.0005 | 0.05 | 0.045
CC(C)C(=Nc1ccc(C#N)c(F)c1)OCc1cccc(Oc2ccccc2)c1 [Compound 233] | 10 | 0.0017 | 0.01 | 0.09
CC(C)C(=Nc1ccc(Cl)c(Cl)c1)OCc1cccc(Oc2ccc(F)c(F)c2)c1 [Compound 218] | 25 | 0.0003 | 0.003 | 0.025
CC(C)C(=Nc1cc(F)c(F)cc1F)OCc1cccc(Oc2ccccc2)c1 [Compound 58] | 16 | 0.002 | 0.003 | 0.06
Cc1cc(N=C(OCc2cccc(Oc3ccc(F)cc3)c2)C(C)C)ccc1F [Compound 236] | 7 | 0.0018 | 0.003 | 0.06
FC(F)(F)c1ccc(Oc2ccc(COC(=Nc3ccc(Cl)cc3)C(Cl)Cl)cc2)nc1 [Compound 453] | > 100 | 0.1 | > 0.05 | –
CCOc1cccc(N=C(OCc2cccc(Oc3ccccc3)c2)C(C)C)c1 [Compound 171] | 80 | 0.01 | – | > 0.1
CC(Br)C(=Nc1ccc(F)c(Cl)c1)OCc1cccc(Oc2ccccc2)c1 (centres unmarked) [Compound 118] | 18 | 0.0013 | – | > 0.1
CCC(C)C(=Nc1ccc(C(C)C)cc1)OCc1cccc(Oc2ccccc2)c1 (centres unmarked) [Compound 317] | > 100 | 0.0045 | – | 0.03
CC(C)C(=Nc1ccc(F)c(Cl)c1)OCc1ccc(OCc2ccc(F)cc2)cc1 [Compound 487] | > 100 | 0.023 | – | > 0.1
CC(C)C(=Nc1ccc2c(c1)OCO2)OCc1cccc(Oc2ccccc2F)c1 [Compound 190] | 7.5 | 0.0004 | – | 0.023
CC(C)C(=Nc1ccc(F)c(Br)c1)OCc1cccc(Oc2ccc(Br)cc2)c1 [Compound 276] | 39 | 0.002 | – | 0.1
CC(C)C(=Nc1ccc2c(c1)OCO2)OCc1c(F)c(F)c(F)c(F)c1F [Compound 464] | > 100 | 0.08 | – | > 0.1
COc1cccc(N=C(OCc2cccc(Oc3ccc(F)cc3)c2)C(C)C)c1 [Compound 201] | 15 | 0.004 | – | > 0.1
CCC(C)C(=Nc1ccc(Cl)cc1)OCc1cccc(Oc2ccccc2)c1 (centres unmarked) [Compound 26] | > 100 | 0.007 | – | > 0.1
CCC(=Nc1ccc(F)cc1F)OCc1cccc(Oc2ccccc2)c1 [Compound 59] | 25 | 0.02 | – | > 0.1
CC(=O)c1cccc(N=C(OCc2cccc(Oc3ccccc3)c2)C(C)C)c1 [Compound 170] | 37 | 0.1 | – | > 0.1

Compound | LC50 HF [1] [µg] | LC50 CL [2] [%] | LC50 BBA [3] [%] | LC50 TBW E (eggs) [4] [%]
CC(C)C(=Nc1ccc(Cl)cc1)OCc1coc(Cc2ccccc2)c1 [Compound 484] | 16 | 0.003 | – | > 0.1
CCC(CC)C(=Nc1ccc(C(C)C)cc1)OCc1cccc(Oc2ccccc2)c1 [Compound 321] | > 100 | 0.05 | – | > 0.1
CC(C)C(=Nc1ccc(Cl)c(C(F)(F)F)c1)OCc1cccc(Oc2cccc(F)c2)c1 [Compound 195] | > 100 | 0.002 | – | > 0.1
CCC(=Nc1ccc(F)c(Cl)c1)OCc1cccc(Oc2ccc(F)cc2)c1 [Compound 115] | 10 | 0.0012 | – | 0.075
CC(C)C(=Nc1cccc(OC(F)(F)C(F)F)c1)OCc1cccc(Oc2ccc(F)cc2)c1 [Compound 288] | > 100 | 0.0015 | – | > 0.1
CC(Cl)C(=Nc1ccc(Cl)c(Cl)c1)OCc1cccc(Oc2ccccc2)c1 (centres unmarked) [Compound 27] | > 100 | 0.04 | – | > 0.1
CC(Br)C(=Nc1ccc(F)c(Cl)c1)OCc1cccc(Oc2ccc(F)cc2)c1 (centres unmarked) [Compound 305] | > 100 | 0.048 | – | > 0.1
CC(C)C(=Nc1cccc(C(F)(F)F)c1)OCc1cccc(Oc2cccc(F)c2)c1 [Compound 192] | 25 | 0.0012 | – | 0.07
CC(C)C(=Nc1ccc(C(C)(C)C)cc1)OCc1cccc(Oc2ccc(Cl)cc2)n1 [Compound 497] | > 100 | 0.0075 | – | > 0.1
CC(C)C(=Nc1ccc(Cl)cc1Cl)OCc1cccc(Oc2ccccc2)c1 [Compound 311] | 22 | 0.0017 | – | 0.1
CC(C)C(=Nc1ccc(F)c(F)c1)OCc1cccc(Oc2ccc(Br)cc2)c1 [Compound 275] | 21 | 0.00012 | – | 0.045
CCCC(=Nc1ccc(Cl)c(Cl)c1)OCc1cccc(Oc2ccccc2)c1 [Compound 38] | 33 | 0.006 | – | 0.05
CC(C)C(=Nc1ccc(F)c(Cl)c1)OCc1cccc(OCc2ccccc2)c1 [Compound 472] | > 100 | 0.0025 | – | > 0.1
C=CCOc1cccc(COC(=Nc2ccc(Cl)c(Cl)c2)C(C)C)c1 [Compound 481] | > 100 | 0.015 | – | > 0.1
CC(C)c1ccc(N=C(OCc2cccc(Oc3ccc(F)cc3)c2)C(C)(C)C)cc1 [Compound 322] | > 100 | 0.007 | – | > 0.1
CCCC(=Nc1ccc(F)c(Cl)c1)OCc1cccc(Oc2ccccc2)c1 [Compound 123] | > 100 | 0.012 | – | > 0.1
CC(C)C(=Nc1ccc2c(c1)OCO2)OCc1ccc(F)c(Oc2ccc(Cl)cc2)c1 [Compound 313] | > 100 | 0.00025 | – | 0.013
